In patent US20210300936A1, “PYRAZOLOTRIAZOLOPYRIMIDINE DERIVATIVES AS A2A RECEPTOR ANTAGONIST” (BEIGENE, LTD., priority 2018, published 2021):

Each molecule was assayed against human A2A receptor (A2AR) (Homo sapiens, UniProt P29274) (assay: Luciferase reporter assay (HEK293-A2AR-luc2p/CRE/Hygro cells, 3 nM CGS21680)). Details: 3 nM CGS21680, 5 h incubation.
Type: cell-based
Method in brief: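 HEK293 cells stably expressing A2AR with a CRE-luc2P reporter were seeded in 1% FBS with 1 U/mL adenosine deaminase. After 18 h, cells got 3 nM CGS21680 plus antagonist at 0.1–10000 nM for 5 h, followed by a luciferase readout. IC50 is relative to the 3 nM CGS21680 signal, set as 100%.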

Sequence of human A2A receptor (A2AR) (P29274 whole entry): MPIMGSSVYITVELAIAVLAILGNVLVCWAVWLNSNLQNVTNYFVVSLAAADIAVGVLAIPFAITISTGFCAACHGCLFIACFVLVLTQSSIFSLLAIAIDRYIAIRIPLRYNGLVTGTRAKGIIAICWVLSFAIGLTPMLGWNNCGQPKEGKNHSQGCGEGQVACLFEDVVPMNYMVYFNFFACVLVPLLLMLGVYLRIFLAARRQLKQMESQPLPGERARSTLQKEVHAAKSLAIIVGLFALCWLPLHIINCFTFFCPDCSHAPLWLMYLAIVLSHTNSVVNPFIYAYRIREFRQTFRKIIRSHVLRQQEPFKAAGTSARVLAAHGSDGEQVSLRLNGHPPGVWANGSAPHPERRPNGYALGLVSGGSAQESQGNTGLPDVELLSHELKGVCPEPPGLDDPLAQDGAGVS

| IC50 | SMILES |
| --- | --- |
| 1.6 nM | Nc1nc2c(cnn2C(C(=O)N2CCN(c3ccc(F)cc3F)CC2)c2ccccc2)c2nc(-c3ccco3)nn12 (stereo not drawn) [Compound A48, 2-(5-amino-2-(furan-2-yl)-7H-pyrazolo[4,3-e][1,2,4]triazolo[1,5-c]pyrimidin-7-yl)-1-(4-(2,4-difluorophenyl)piperazin-1-yl)-2-phenylethan-1-one] |
| 3.2 nM | Nc1nc2c(cnn2C(C(=O)N2CCN(c3ccc(F)cc3)CC2)c2ccccc2)c2nc(-c3ccco3)nn12 (stereo not drawn) [Compound A49, 2-(5-amino-2-(furan-2-yl)-7H-pyrazolo[4,3-e][1,2,4]triazolo[1,5-c]pyrimidin-7-yl)-1-(4-(4-fluorophenyl)piperazin-1-yl)-2-phenylethan-1-one] |
| 1.5 nM | COCCOc1ccc(N2CCN(C(=O)C(c3ccccc3)n3ncc4c3nc(N)n3nc(-c5ccco5)nc43)[C@H](C)C2)cc1 (stereo partly drawn) [Compound A50, 2-(5-amino-2-(furan-2-yl)-7H-pyrazolo[4,3-e][1,2,4]triazolo[1,5-c]pyrimidin-7-yl)-1-((R)-4-(4-(2-methoxyethoxy)phenyl)-2-methylpiperazin-1-yl)-2-phenylethan-1-one] |
| 4.8 nM | CCCC(C(=O)N1CCN(c2ccc(OCCOC)c(F)c2F)CC1)n1ncc2c1nc(N)n1nc(-c3ccco3)nc21 (stereo not drawn) [Compound A51, 2-(5-amino-2-(furan-2-yl)-7H-pyrazolo[4,3-e][1,2,4]triazolo[1,5-c]pyrimidin-7-yl)-1-(4-(2,3-difluoro-4-(2-methoxyethoxy)phenyl)piperazin-1-yl)pentan-1-one] |
| 8.7 nM | COCCOc1ccc(N2CCN(C(=O)C(c3ccccc3)n3ncc4c3nc(N)n3nc(-c5ccco5)nc43)[C@@H](C)C2)cc1 (stereo partly drawn) [Compound A52, 2-(5-amino-2-(furan-2-yl)-7H-pyrazolo[4,3-e][1,2,4]triazolo[1,5-c]pyrimidin-7-yl)-1-((S)-4-(4-(2-methoxyethoxy)phenyl)-2-methylpiperazin-1-yl)-2-phenylethan-1-one] |
| 5 nM | CCCC(C(=O)N1CCN(c2ccc(OCCOC)c(F)c2)CC1)n1ncc2c1nc(N)n1nc(-c3ccco3)nc21 (stereo not drawn) [Compound A53, 2-(5-amino-2-(furan-2-yl)-7H-pyrazolo[4,3-e][1,2,4]triazolo[1,5-c]pyrimidin-7-yl)-1-(4-(3-fluoro-4-(2-methoxyethoxy)phenyl)piperazin-1-yl)pentan-1-one] |
| 4.9 nM | CCCC(C(=O)N1CCN(c2cc(F)c(OCCOC)cc2F)CC1)n1ncc2c1nc(N)n1nc(-c3ccco3)nc21 (stereo not drawn) [Compound A54, 2-(5-amino-2-(furan-2-yl)-7H-pyrazolo[4,3-e][1,2,4]triazolo[1,5-c]pyrimidin-7-yl)-1-(4-(2,5-difluoro-4-(2-methoxyethoxy)phenyl)piperazin-1-yl)pentan-1-one] |
| 2.3 nM | COCCOc1ccc(N2CCN(C(=O)C(c3ccccc3)n3ncc4c3nc(N)n3nc(-c5ccco5)nc43)CC2)cc1F (stereo not drawn) [Compound A55, 2-(5-amino-2-(furan-2-yl)-7H-pyrazolo[4,3-e][1,2,4]triazolo[1,5-c]pyrimidin-7-yl)-1-(4-(3-fluoro-4-(2-methoxyethoxy)phenyl)piperazin-1-yl)-2-phenylethan-1-one] |
| 1.7 nM | COCCOc1ccc(N2CCN(C(=O)C(c3ccccc3)n3ncc4c3nc(N)n3nc(-c5ccco5)nc43)CC2)c(F)c1F (stereo not drawn) [Compound A56, 2-(5-amino-2-(furan-2-yl)-7H-pyrazolo[4,3-e][1,2,4]triazolo[1,5-c]pyrimidin-7-yl)-1-(4-(2,3-difluoro-4-(2-methoxyethoxy)phenyl)piperazin-1-yl)-2-phenylethan-1-one] |
| 5.3 nM | COCCOc1cc(F)c(N2CCN(C(=O)C(c3ccccc3)n3ncc4c3nc(N)n3nc(-c5ccco5)nc43)CC2)cc1F (stereo not drawn) [Compound A57, 2-(5-amino-2-(furan-2-yl)-7H-pyrazolo[4,3-e][1,2,4]triazolo[1,5-c]pyrimidin-7-yl)-1-(4-(2,5-difluoro-4-(2-methoxyethoxy)phenyl)piperazin-1-yl)-2-phenylethan-1-one] |
| > 10000 nM | COCCOc1ccc(N2CCN(C(=O)C(C3CCNCC3)n3ncc4c3nc(N)n3nc(-c5ccco5)nc43)CC2)cc1 (stereo not drawn) [Compound A58, 2-(5-amino-2-(furan-2-yl)-7H-pyrazolo[4,3-e][1,2,4]triazolo[1,5-c]pyrimidin-7-yl)-1-(4-(4-(2-methoxyethoxy)phenyl)piperazin-1-yl)-2-(piperidin-4-yl)ethan-1-one] |
| 18.4 nM | COCCOc1ccc(N2CC(C)N(C(=O)C(c3ccccc3)n3ncc4c3nc(N)n3nc(-c5ccco5)nc43)C(C)C2)cc1 (stereo not drawn) [Compound A59, 2-(5-amino-2-(furan-2-yl)-7H-pyrazolo[4,3-e][1,2,4]triazolo[1,5-c]pyrimidin-7-yl)-1-(4-(4-(2-methoxyethoxy)phenyl)-2,6-dimethylpiperazin-1-yl)-2-phenylethan-1-one] |
| > 10000 nM | COCCOc1ccc(N2CCN(C(=O)C(C3CCN(C)CC3)n3ncc4c3nc(N)n3nc(-c5ccco5)nc43)CC2)cc1 (stereo not drawn) [Compound A60, 2-(5-amino-2-(furan-2-yl)-7H-pyrazolo[4,3-e][1,2,4]triazolo[1,5-c]pyrimidin-7-yl)-1-(4-(4-(2-methoxyethoxy)phenyl)piperazin-1-yl)-2-(1-methylpiperidin-4-yl)ethan-1-one] |
| 0.5 nM | Nc1nc2c(cnn2C(C(=O)N2CCN(c3ccc(OCCO)cc3)CC2)c2ccccc2)c2nc(-c3ccco3)nn12 (stereo not drawn) [Compound A61, 2-(5-amino-2-(furan-2-yl)-7H-pyrazolo[4,3-e][1,2,4]triazolo[1,5-c]pyrimidin-7-yl)-1-(4-(4-(2-hydroxyethoxy)phenyl)piperazin-1-yl)-2-phenylethan-1-one] |
| 1.3 nM | CC(O)COc1ccc(N2CCN(C(=O)C(c3ccccc3)n3ncc4c3nc(N)n3nc(-c5ccco5)nc43)CC2)cc1 (stereo not drawn) [Compound A62, 2-(5-amino-2-(furan-2-yl)-7H-pyrazolo[4,3-e][1,2,4]triazolo[1,5-c]pyrimidin-7-yl)-1-(4-(4-(2-hydroxypropoxy)phenyl)piperazin-1-yl)-2-phenylethan-1-one] |
| 6.2 nM | COCCOc1ccc(N2CCN(C(=O)C(C)(c3ccccc3)n3ncc4c3nc(N)n3nc(-c5ccco5)nc43)CC2)cc1 (stereo not drawn) [Compound A63, 2-(5-amino-2-(furan-2-yl)-7H-pyrazolo[4,3-e][1,2,4]triazolo[1,5-c]pyrimidin-7-yl)-1-(4-(4-(2-methoxyethoxy)phenyl)piperazin-1-yl)-2-phenylpropan-1-one] |
| 4.8 nM | COCCOc1ccc(N2CCN(C(=O)C(C)(c3ccccc3)n3ncc4c3nc(N)n3nc(-c5ccco5)nc43)CC2)c(F)c1 (stereo not drawn) [Compound A64, 2-(5-amino-2-(furan-2-yl)-7H-pyrazolo[4,3-e][1,2,4]triazolo[1,5-c]pyrimidin-7-yl)-1-(4-(2-fluoro-4-(2-methoxyethoxy)phenyl)piperazin-1-yl)-2-phenylpropan-1-one] |
| 17.5 nM | COCCOc1ccc(N2CCN(C(=O)[C@](C)(c3ccccc3)n3ncc4c3nc(N)n3nc(-c5ccco5)nc43)CC2)c(F)c1 [Compound A64a, (S)-2-(5-amino-2-(furan-2-yl)-7H-pyrazolo[4,3-e][1,2,4]triazolo[1,5-c]pyrimidin-7-yl)-1-(4-(2-fluoro-4-(2-methoxyethoxy)phenyl)piperazin-1-yl)-2-phenylpropan-1-one] |
| 2.2 nM | COCCOc1ccc(N2CCN(C(=O)[C@@](C)(c3ccccc3)n3ncc4c3nc(N)n3nc(-c5ccco5)nc43)CC2)c(F)c1 [Compound A64b, (R)-2-(5-amino-2-(furan-2-yl)-7H-pyrazolo[4,3-e][1,2,4]triazolo[1,5-c]pyrimidin-7-yl)-1-(4-(2-fluoro-4-(2-methoxyethoxy)phenyl)piperazin-1-yl)-2-phenylpropan-1-one] |
| 6.4 nM | COCCOc1cc(F)c(N2CCN(C(=O)C(C)(c3ccccc3)n3ncc4c3nc(N)n3nc(-c5ccco5)nc43)CC2)cc1F (stereo not drawn) [Compound A65, 2-(5-amino-2-(furan-2-yl)-7H-pyrazolo[4,3-e][1,2,4]triazolo[1,5-c]pyrimidin-7-yl)-1-(4-(2,5-difluoro-4-(2-methoxyethoxy)phenyl)piperazin-1-yl)-2-phenylpropan-1-one] |
| 21.4 nM | COCCOc1cc(F)c(N2CCN(C(=O)[C@](C)(c3ccccc3)n3ncc4c3nc(N)n3nc(-c5ccco5)nc43)CC2)cc1F [Compound A65a, (S)-2-(5-amino-2-(furan-2-yl)-7H-pyrazolo[4,3-e][1,2,4]triazolo[1,5-c]pyrimidin-7-yl)-1-(4-(2,5-difluoro-4-(2-methoxyethoxy)phenyl)piperazin-1-yl)-2-phenylpropan-1-one] |
| 3.3 nM | COCCOc1cc(F)c(N2CCN(C(=O)[C@@](C)(c3ccccc3)n3ncc4c3nc(N)n3nc(-c5ccco5)nc43)CC2)cc1F [Compound A65b, (R)-2-(5-amino-2-(furan-2-yl)-7H-pyrazolo[4,3-e][1,2,4]triazolo[1,5-c]pyrimidin-7-yl)-1-(4-(2,5-difluoro-4-(2-methoxyethoxy)phenyl)piperazin-1-yl)-2-phenylpropan-1-one] |
| 6.5 nM | COCCOc1ccc(N2CCN(C(=O)C(C)(c3ccccc3)n3ncc4c3nc(N)n3nc(-c5ccco5)nc43)CC2)cc1F (stereo not drawn) [Compound A66, 2-(5-amino-2-(furan-2-yl)-7H-pyrazolo[4,3-e][1,2,4]triazolo[1,5-c]pyrimidin-7-yl)-1-(4-(3-fluoro-4-(2-methoxyethoxy)phenyl)piperazin-1-yl)-2-phenylpropan-1-one] |
| 16.8 nM | COCCOc1ccc(N2CCN(C(=O)[C@](C)(c3ccccc3)n3ncc4c3nc(N)n3nc(-c5ccco5)nc43)CC2)cc1F [Compound A66a, (S)-2-(5-amino-2-(furan-2-yl)-7H-pyrazolo[4,3-e][1,2,4]triazolo[1,5-c]pyrimidin-7-yl)-1-(4-(3-fluoro-4-(2-methoxyethoxy)phenyl)piperazin-1-yl)-2-phenylpropan-1-one] |
